Laboratory results taken from patent US20250213547A1, “METHODS OF TREATING NEUROLOGICAL DISEASES” (priority 2022, published 2025).
Like-named read-outs stand apart in the source and are kept apart here.

Assay: Healthy Japanese subjects, Part 2 (100, 200, 300 mg BID up-titration): PK of TAK-935 and M-I
Assay type: in vivo, human
Conditions: human, plasma, oral; for Vd/F: read-out: Vz/F; for half-life: read-out: t1/2z (terminal disposition phase half-life) (converted)
Procedure: This study consisted of 2 parts, and was a randomized, double-blind, placebo-controlled study to assess safety, tolerability, and PK and PD of TAK-935 when administered orally in healthy Japanese subjects.
TAK-935 or placebo was administered to the 9 subjects at the dose of 100 mg BID from Day 1 to Day 7, then 200 mg BID from Day 8 to Day 14, and finally 300 mg BID from Day 15 to Day 21, and safety, PK and PD were investigated. The planned dose levels of TAK-935 to be evaluated are outlined in Table 40a.
After the screening visit, eligible participants checked—in on Day-2. On Day 1, eligible participants were randomized 6:3 to TAK-935 or placebo in double-blinded fashion. No stratification variables were used for randomization. Study drug was administered every day by oral administration of multiple dosing with up-titration of TAK-935 to 9 subjects firstly at 100 mg BID from Day 1 to Day 7, then at 200 mg BID from Day 8 to Day 14, and finally at 300 mg BID from Day 15 to Day 21, successively. The subjects were discharged on Day 24. Intensive PK samplings were performed on Day 1, Day 7, Day 14 and Day 21.
Subjects received multiple oral doses of TAK-935 or placebo escalating from 100 mg BID, 200 mg BID, and then to 300 mg BID with 150 mL of water for 7 days per each dose level. For the morning dose, subjects were kept fasted for at least 8 hours before administration and up to 2 hours after administration. The evening dose was administered at any time between 8 hours and 12 hours after the morning dose, but prior to the evening meal except for Days 1, 7, 14, and 21. On Days 1, 7, 14, and 21, the evening dose was administered 12 hours after the morning dose and prior to the evening meal. • Identity of Study Drugs • Study drug refers to TAK-935 100 mg tablet and matching placebo. • Compound: Code name: TAK-935 • Dosage forms: TAK-935 100 mg tablets and matching placebo tablets were used in this study. The TAK-935 tablets and placebo tablets were yellow-red film-coated tablets for oral administration.
Blood samples for PK analysis of TAK-935 and its metabolites (M-I) were collected into blood collection tubes (vacutainer) containing the anticoagulant K2EDTA (Table 40e and Table 40f).
The PK parameters of TAK-935 and its metabolites (M-I) were determined from the concentration-time profiles for all evaluable subjects. Actual sampling times, rather than scheduled sampling times, were used in all computations involving sampling times. The following PK parameters were calculated from plasma concentrations of TAK-935 and its metabolites (M-I), unless otherwise specified: […]

[1] = 100 mg, Day 7, TAK-935 100 mg BID, mean
[2] = 200 mg, Day 14, TAK-935 200 mg BID, mean
[3] = 300 mg, Day 21, TAK-935 300 mg BID, mean

Compound `O=C(c1cccnc1-c1ccncc1)N1CCC(O)(Cc2ccccc2)CC1` [soticlestat] has a Cmax (100 mg, Day 7 (100 mg BID), Part 2, Geo Mean, read-out: Cmax) of 146 ng/mL, a Tmax (100 mg, Day 7 (100 mg BID), Part 2, Mean, read-out: Tmax) of 50 min and an AUC (100 mg, Day 7 (100 mg BID), Part 2, Median, read-out: AUC1ast) of 226 ng·h/mL. For the same compound, the AUC (100 mg, Day 7 (100 mg BID), Part 2, Median, read-out: AUCtau) was 226 ng·h/mL, the Cmax (100 mg, Day 7 (100 mg BID), Part 2, Median, read-out: Cmax) was 148 ng/mL and the Vd/F (100 mg, Day 7 (100 mg BID), Part 2, Median) was 2600 L. The AUC(0-t) [1] was 224 ng·h/mL, the AUC (100 mg, Day 7, TAK-935 100 mg BID, mean, read-out: AUCτ (AUC during a dosing interval)) was 224 ng·h/mL and the Cmax (100 mg, Day 7, TAK-935 100 mg BID, mean, read-out: Cmax) was 204 ng/mL. For the same compound, the Vd/F [1] was 2940 L, the half-life [1] was 218 min and the Tmax (100 mg, Day 7, TAK-935 100 mg BID, median, read-out: tmax) was 30 min. The Tmax (100 mg, TAK-935, Day 1, 100 mg BID, read-out: Median Tmax) was 45 min, the AUC (100 mg, TAK-935, Day 1, first dose 100 mg BID, read-out: Mean AUCτ) was 232 ng·h/mL and the Cmax (100 mg, TAK-935, Day 1, first dose 100 mg BID, read-out: mean Cmax) was 255 ng/mL. For the same compound, the AUC (100 mg, TAK-935, Day 7, 100 mg BID, read-out: Mean AUCτ) was 224 ng·h/mL, the Cmax (100 mg, TAK-935, Day 7, 100 mg BID, read-out: mean Cmax) was 204 ng/mL and the AUC (200 mg, Day 14 (200 mg BID), Part 2, Geo Mean, read-out: AUC1ast) was 788 ng·h/mL. For the same compound, the AUC (200 mg, Day 14 (200 mg BID), Part 2, Geo Mean, read-out: AUCtau) was 789 ng·h/mL, the Cmax (200 mg, Day 14 (200 mg BID), Part 2, Geo Mean, read-out: Cmax) was 836 ng/mL and the Tmax (200 mg, Day 14 (200 mg BID), Part 2, Mean, read-out: Tmax) was 40 min. It also gave an AUC (200 mg, Day 14 (200 mg BID), Part 2, Median, read-out: AUC1ast) of 794 ng·h/mL, an AUC (200 mg, Day 14 (200 mg BID), Part 2, Median, read-out: AUCtau) of 794 ng·h/mL and a Cmax (200 mg, Day 14 (200 mg BID), Part 2, Median, read-out: Cmax) of 1030 ng/mL. For the same compound, the Vd/F (200 mg, Day 14 (200 mg BID), Part 2, Median) was 1030 L, the AUC(0-t) [2] was 860 ng·h/mL and the AUC (200 mg, Day 14, TAK-935 200 mg BID, mean, read-out: AUCτ (AUC during a dosing interval)) was 861 ng·h/mL. It also gave a Cmax (200 mg, Day 14, TAK-935 200 mg BID, mean, read-out: Cmax) of 980 ng/mL, a Vd/F [2] of 1090 L and a half-life [2] of 157 min. For the same compound, the Tmax (200 mg, Day 14, TAK-935 200 mg BID, median, read-out: tmax) was 30 min, the AUC (200 mg, TAK-935, Day 14, 200 mg BID, read-out: Mean AUCτ) was 861 ng·h/mL and the Cmax (200 mg, TAK-935, Day 14, 200 mg BID, read-out: mean Cmax) was 980 ng/mL. For the same compound, the AUC (300 mg, Day 21 (300 mg BID), Part 2, Geo Mean, read-out: AUC1ast) was 1960 ng·h/mL, the AUC (300 mg, Day 21 (300 mg BID), Part 2, Geo Mean, read-out: AUCtau) was 1960 ng·h/mL and the Cmax (300 mg, Day 21 (300 mg BID), Part 2, Geo Mean, read-out: Cmax) was 1940 ng/mL. For the same compound, the Tmax (300 mg, Day 21 (300 mg BID), Part 2, Mean, read-out: Tmax) was 32.5 min, the AUC (300 mg, Day 21 (300 mg BID), Part 2, Median, read-out: AUC1ast) was 2040 ng·h/mL and the AUC (300 mg, Day 21 (300 mg BID), Part 2, Median, read-out: AUCtau) was 2040 ng·h/mL. It also gave a Cmax (300 mg, Day 21 (300 mg BID), Part 2, Median, read-out: Cmax) of 1600 ng/mL, a Vd/F (300 mg, Day 21 (300 mg BID), Part 2, Median) of 620 L and an AUC(0-t) [3] of 2020 ng·h/mL. It also gave an AUC (300 mg, Day 21, TAK-935 300 mg BID, mean, read-out: AUCτ (AUC during a dosing interval)) of 2020 ng·h/mL, a Cmax (300 mg, Day 21, TAK-935 300 mg BID, mean, read-out: Cmax) of 2060 ng/mL and a Vd/F [3] of 640 L. It also gave a half-life [3] of 176 min, a Tmax (300 mg, Day 21, TAK-935 300 mg BID, median, read-out: tmax) of 30 min and an AUC (300 mg, TAK-935, Day 21, 300 mg BID, read-out: Mean AUCτ) of 2020 ng·h/mL. For the same compound, the Cmax (300 mg, TAK-935, Day 21, 300 mg BID, read-out: mean Cmax) was 2060 ng/mL and the Tmax (TAK-935, Day 7, Day 14 and Day 21, read-out: Median Tmax) was 30 min.
